According to publication PMC8569681, “New Pyrimidine and Pyridine Derivatives as Multitarget Cholinesterase Inhibitors: Design, Synthesis, and In Vitro and In Cellulo Evaluation” (ACS Chemical Neuroscience, 2021):
“Also recorded” adds a separate entry of the source.

How the values were obtained:
Aβ42 peptide = target: T1, Aβ42 peptide (Homo sapiens, UniProt P05067); assay: Inhibition of Aβ42 aggregation in intact E. coli cells, thioflavin-S; type: cell-based, Escherichia coli; conditions: [I] = 100 μM
T1 construct: expressed in transfected cells; host or cells: E. coli BL21 (DE3), pET28a
Method: The anti-aggregating effect of the tested compounds was monitored by a cell-based assay in intact Escherichia coli cells that overexpress either the Aβ42 peptide or tau protein, which upon overexpression form insoluble inclusion bodies that were stained with thioflavin-S, an amyloid specific dye.[36] The percentages of inhibition toward Aβ42 and tau aggregation were determined at an inhibitor concentration of 100 μM, and the obtained results are reported in Table 7.
E. coli competent cells BL21 (DE3) were transformed with the pET28a vector (Novagen, Inc., Madison, WI, USA) carrying the DNA sequence of Aβ42. Because of the addition of the initiation codon ATG in front of both genes, the overexpressed peptide contains an additional methionine residue at its N terminus. For overnight culture preparation, an amount of 10 mL of the M9 minimal medium containing 50 μg·mL^–1 of kanamycin was inoculated with a colony of BL21 (DE3) bearing the plasmid to be expressed at 37 °C. For expression of the Aβ42 peptide, the required volume of overnight culture to obtain 1:500 dilution was added into the fresh M9 minimal medium containing 50 μg·mL^–1 of kanamycin and 250 μM Th-S. The bacterial culture was grown at 37 °C and 250 rpm. When the cell density reached OD600 = 0.6, an amount of 980 μL of culture was transferred into Eppendorf tubes of 1.5 mL with 10 μL of each compound to be tested in DMSO and 10 μL of isopropyl 1-thio-β-D-galactopyranoside (IPTG) at 100 mM. The final concentration of the drug was fixed at 100 μM. The samples were grown overnight at 37 °C and 1400 rpm using a ThermoMixer (Eppendorf, Hamburg, Germany). As negative control (maximal amyloid presence), the same amount of DMSO without the drug was added in the sample. In parallel, non-induced samples (in the absence of IPTG) were also prepared and used as positive controls (non-amyloid presence). In addition, these samples were used to assess the potential intrinsic toxicity of the compounds and to confirm the correct bacterial growth.
Th-S (T1892) and other chemical reagents were purchased from Sigma (St. Louis, MO). The Th-S stock solution ([…]) was prepared in double-distilled water purified through a Milli-Q system (Millipore, USA). Th-S fluorescence and absorbance were tracked using a DTX 800 plate reader Multimode Detector equipped with a Multimode Analysis Software (Beckman-Coulter, USA). Filters of 430/35 and 485/20 nm were used for the excitation and emission wavelengths, respectively. Filters of 535/25 nm were also used for the absorbance determination. To normalize the Th-S fluorescence as a function of the bacterial concentration, OD600 was obtained using a Shimadzu UV-2401 PC UV–vis spectrophotometer (Shimadzu, Japan). Note that the fluorescence normalization was carried out considering as 100% the Th-S fluorescence of the bacterial cells expressing the peptide or protein in the absence of drug and 0% the Th-S fluorescence of the bacterial cells not expressing the peptide or protein. A minimum of five independent assays (with three replicates for assay) was performed for each tested compound. More assays were performed to obtain a SEM < 5% with a maximum of 10 independent assays.

[1] = Antioxidant activity, DPPH spectrophotometric method; conditions: for antioxidant activity (reaction with DPPH): DPPH about 25 μM, antioxidant 60 μM; for reaction time (time for reaching the plateau): DPPH, absorbance at 515 nm
Method: The antioxidant activity assays were carried out according to the 2,2-diphenyl-1-picrylhydrazyl (DPPH) spectrophotometric method.[34] Initially, to assess whether the compounds had antioxidant activity and to define the time required by each antioxidant to reach the steady state, the reduction in absorbance over time at 515 nm of a solution of DPPH mixed with the tested compound was recorded until reaching the plateau. […] The value of EC50 can be extrapolated by plotting the percentage of residual DPPH at the steady state as a function of the molar ratio of the antioxidant to initial DPPH.
2,2-Diphenyl-1-picrylhydrazyl (DPPH), MeOH, and ascorbic acid, used as the reference standard, were purchased from Sigma-Aldrich. Micropipettes Labmate (BRAND Dig. 10–100 μL; Dig. 100–1000 μL) and Transferpette (HIGH TECH LAB LM200: 20–200 μL; LM5000: 1000–5000 μL) were used to collect the samples. The assays were carried out by a double beam UV–vis Lambda 40 Perkin Elmer spectrophotometer using optical polystyrene cuvettes (10 × 10 × 45 mm, 340–800 nm optical transparency); each measure was repeated at least in triplicate. For data processing, UV-WIN Lab version 2.0 (Perkin Elmer Corporation) was used. The antioxidant activity of the tested compounds was evaluated by the DPPH method[34] based on the ability of antioxidant compounds to react with the stable radical DPPH, which has a maximum absorption at about 515 nm. Thus, by measuring the decrease in absorbance over time of DPPH solutions to which increasing amounts of the tested compound are added, the antioxidant activity of the compound can be determined.
[…]. To 2.90 mL of MeOH, 60 μL of a DPPH solution in MeOH (∼1.2 mM) and 40 μL of an antioxidant solution in MeOH (4.5 mM) were added to have in the cuvette concentrations of DPPH equal to about 25 μM and of antioxidant equal to 60 μM. The exact DPPH concentration was calculated through the Lambert–Beer relation, known the extinction coefficient of DPPH at 515 nm, equal to 1.25 × 10^4.[34] The absorbance was recorded until the plateau was reached.
. To obtain the initial DPPH concentration, 2.94 mL of MeOH and 60 μL of the DPPH solution in MeOH (∼1.2 mM) were placed in a polystyrene cuvette and the absorbance was recorded at 515 nm. The exact initial DPPH concentration was calculated through the Lambert–Beer relation. For subsequent measurements, the cuvettes were set up by introducing the opportune volume of MeOH to reach a total volume of 3 mL, 60 μL of the DPPH solution in MeOH (∼1.2 mM, to have a final concentration of ∼25 μM), and the appropriate volumes of the antioxidant stock solution in MeOH to have final concentrations between 1.5 and 12 μM for 20 and between 5 and 60 μM for 18 and 30; the absorbance was recorded at 515 nm at the plateau and then after 1 min for compound 20 and after 90 min for compounds 18 and 30. Each measure was repeated four times. With absorbance data, the percentages of residual DPPH at steady state were obtained using the following equation: [drawing 3] where Ac is the average of absorbance in the presence of antioxidant at plateau and A0 is the average of the initial absorbance of DPPH.
The same procedure was performed using ascorbic acid as the antioxidant at cuvette concentrations between 1.5 and 18 μM, recording the absorbance at 515 nm after 2 min from the preparation of the cuvettes.

U-87 MG cell line = assay: Cytotoxicity, MTT cell viability assay; conditions: 24 h
Method: Data represent the absorbance % (± SD) relative to untreated cells in the same experiment and standardized to 100%. All data points were performed in triplicate and at least three independent experiments.
After an incubation time of 24 h, the medium was replaced by a new fresh medium containing 0.5 mg/mL MTT (Sigma, Deisenhofen, Germany). After 2 h at 37 °C in 5% CO2, unreacted dye was removed and cells were dissolved by DMSO (Merck, Darmstadt, Germany). Absorbance was read at 570 nm by a microtiter spectrophotometer plate reader. The data were expressed as absorbance relative to untreated cells in the same experiment and standardized to 100%. All data points were performed in triplicate and at least three independent experiments.

T1 sequence (P05067 672-713 limits assumed): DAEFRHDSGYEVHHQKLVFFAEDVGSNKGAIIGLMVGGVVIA

c1ccc(CNCCCCCCNc2ccccn2)cc1 [Compound 25, N^1-Benzyl-N^6-(pyridin-2-yl)hexane-1,6-diamine]
inhibition at 100 µM (Aβ42 peptide): 16.8%

Brc1ccc(CNCCCCCCNc2ccccn2)cc1 [Compound 26, N^1-(4-Bromobenzyl)-N^6-(pyridin-2-yl)hexane-1,6-diamine]
inhibition at 100 µM (Aβ42 peptide): 7.3%

COc1cc(CNCCCCCCNc2ccccn2)ccc1O [Compound 30, 2-Methoxy-4-(((6-(pyridin-2-ylamino)hexyl)amino)methyl)phenol]
inhibition at 100 µM (Aβ42 peptide): 13.6% | antioxidant activity (reaction with DPPH) [1]: antioxidant properties; also recorded: showed antioxidant activity; also recorded: possess antioxidant activity | reaction time (time for reaching the plateau) [1]: 90 min

c1ccc(CNCCCCCNc2ccccn2)cc1 [Compound 23, N^1-Benzyl-N^5-(pyridin-2-yl)pentane-1,5-diamine]
inhibition at 100 µM (Aβ42 peptide): 10.4%

c1ccc(CNCCCCCCNc2ncccn2)cc1 [Compound 13, N^1-Benzyl-N^6-(pyrimidin-2-yl)hexane-1,6-diamine]
inhibition at 100 µM (Aβ42 peptide): 21%

COc1ccccc1CNCCCCCCNc1ccccn1 [Compound 28, N^1-(2-Methoxybenzyl)-N^6-(pyridin-2-yl)hexane-1,6-diamine]
inhibition at 100 µM (Aβ42 peptide): 22.3%

c1cnc(NCCCCCCNCc2c[nH]c3ccccc23)nc1 [Compound 22, N^1-((1H-Indol-3-yl)methyl)-N^6-(pyrimidin-2-yl)hexane-1,6-diamine]
inhibition at 100 µM (Aβ42 peptide): 9.7% | cytotoxic effect on U-87 MG cells (U-87 MG cell line; 1 to 50 μM): more pronounced cytotoxic effect

Oc1cccc(CNCCCCCCNc2ncccn2)c1 [Compound 19, 3-(((6-(Pyrimidin-2-ylamino)hexyl)amino)methyl)phenol]
inhibition at 100 µM (Aβ42 peptide): 16.7% | antioxidant activity (reaction with DPPH) [1]: did not show a significant ability to interact with DPPH; also recorded: no significant antioxidant capacity

Oc1cccc(CNCCCCCCNc2ncccn2)c1O [Compound 20, 3-(((6-(Pyrimidin-2-ylamino)hexyl)amino)methyl)benzene-1,2-diol]
inhibition at 100 µM (Aβ42 peptide): 7.2% | cytotoxicity on U-87 MG cells (U-87 MG cell line; concentrations up to 10 μM): not cytotoxic | antioxidant activity (reaction with DPPH) [1]: antioxidant properties; also recorded: showed antioxidant activity; also recorded: possess antioxidant activity; also recorded: most efficient antioxidant | reaction time (time for reaching the plateau) [1]: 1 min

c1ccc(CNCCCCCNc2ncccn2)cc1 [Compound 9, N^1-Benzyl-N^5-(pyrimidin-2-yl)pentane-1,5-diamine]
inhibition at 100 µM (Aβ42 peptide): 5.8%

COc1cc(CNCCCCCCNc2ncccn2)ccc1O [Compound 18, 2-Methoxy-4-(((6-(pyrimidin-2-ylamino)hexyl)amino)methyl)phenol]
inhibition at 100 µM (Aβ42 peptide): 1.7% | antioxidant activity (reaction with DPPH) [1]: antioxidant properties; also recorded: showed antioxidant activity; also recorded: possess antioxidant activity | reaction time (time for reaching the plateau) [1]: 90 min
